Experimental data taken from patent publication US10906915B2, “Substituted pyrazoloazepin-4-ones and their use as phosphodiesterase inhibitors” (LEO Pharma A/S, priority 2016, dated 2021).

target: human PDE4D catalytic domain (UniProt no. Q08499) (Homo sapiens (Human), UniProt Q08499); test: PDE4 assay (TR-FRET, FAM-cAMP cleavage); assay type: biochemical; details: human PDE4D catalytic domain; molar concentration giving 50% inhibition of substrate cleavage; read-out: PDE4 IC50 range
Protocol: The human PDE4D catalytic domain (UniProt no. Q08499 [[…]]) was incubated with a mixture of non-labelled cAMP (cyclic adenosine monophosphate) and fluorescein amidite (FAM) conjugated cAMP and titrated test or reference compound. Following brief incubation the enzymatic reaction was stopped by addition of binding buffer containing nanoparticles with immobilized trivalent metal ions capable of binding 1) AMP phospho groups and 2) terbium (Tb) donor fluorophores. Subsequent excitation of the Tb donor triggers time-resolved FRET to adjacent FAM acceptor molecules resulting in light emission. In the presence of a PDE4 inhibitor, AMP generation was reduced resulting in a lower fluorescence signal. The cAMP phosphodiester is not bound by the detection system.
The results were calculated as the molar concentrations resulting in 50% inhibition of the substrate cleavage compared to controls samples, and are expressed as a range of IC50 (nM).

human PDE4D catalytic domain, sequence (Q08499 380-740 limits assumed): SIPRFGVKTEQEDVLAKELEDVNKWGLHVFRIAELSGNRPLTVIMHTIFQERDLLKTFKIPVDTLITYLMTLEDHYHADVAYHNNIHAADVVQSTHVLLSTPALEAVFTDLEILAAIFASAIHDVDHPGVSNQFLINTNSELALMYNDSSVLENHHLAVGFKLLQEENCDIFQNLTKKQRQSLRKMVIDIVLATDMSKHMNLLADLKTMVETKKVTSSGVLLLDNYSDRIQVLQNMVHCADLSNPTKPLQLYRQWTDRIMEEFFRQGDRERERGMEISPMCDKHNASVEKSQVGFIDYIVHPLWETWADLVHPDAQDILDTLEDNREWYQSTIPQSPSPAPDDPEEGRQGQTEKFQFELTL

Row | Compound | IC50
1 | CCc1nn(CCCOC(=O)c2ccccc2C#N)c2c1C(=O)NCC1(CCOCC1)C2 [Example 25, 3-(3-ethyl-4-oxo-spiro[6,8-dihydro-5H-pyrazolo[4,3-c]azepine-7,4′-tetrahydropyran]-1-yl)propyl 2-cyanobenzoate] | < 100 nM
2 | CCc1nn(CCCOC(=O)c2ccc(C)c(C)c2)c2c1C(=O)NCC1(CCOCC1)C2 [Example 26, 3-(3-ethyl-4-oxo-spiro[6,8-dihydro-5H-pyrazolo[4,3-c]azepine-7,4′-tetrahydropyran]-1-yl)propyl 3,4-dimethylbenzoate] | < 100 nM
3 | CCc1nn(CCCOC(=O)c2ccc(C)cc2C)c2c1C(=O)NCC1(CCOCC1)C2 [Example 27, 3-(3-ethyl-4-oxo-spiro[6,8-dihydro-5H-pyrazolo[4,3-c]azepine-7,4′-tetrahydropyran]-1-yl)propyl 2,4-dimethylbenzoate] | < 100 nM
4 | CCc1nn(CCCOC(=O)c2ccc(OC)cc2)c2c1C(=O)NCC1(CCOCC1)C2 [Example 28, 3-(3-ethyl-4-oxo-spiro[6,8-dihydro-5H-pyrazolo[4,3-c]azepine-7,4′-tetrahydropyran]-1-yl)propyl 4-methoxybenzoate] | < 100 nM
5 | CCc1nn(CCCOC(=O)c2cccc(OC)c2)c2c1C(=O)NCC1(CCOCC1)C2 [Example 29, 3-(3-ethyl-4-oxo-spiro[6,8-dihydro-5H-pyrazolo[4,3-c]azepine-7,4′-tetrahydropyran]-1-yl)propyl 3-methoxybenzoate] | < 100 nM
6 | CCc1nn(CCCOC(=O)c2ccccc2OC)c2c1C(=O)NCC1(CCOCC1)C2 [Example 30, 3-(3-ethyl-4-oxo-spiro[6,8-dihydro-5H-pyrazolo[4,3-c]azepine-7,4′-tetrahydropyran]-1-yl)propyl 2-methoxybenzoate] | < 100 nM
7 | CCc1nn(CCCOC(=O)CCS(C)(=O)=O)c2c1C(=O)NCC1(CCOCC1)C2 [Example 31, 3-(3-ethyl-4-oxo-spiro[6,8-dihydro-5H-pyrazolo[4,3-c]azepine-7,4′-tetrahydropyran]-1-yl)propyl 3-methylsulfonylpropanoate] | > 500 nM
8 | CCc1nn(CCCOC(=O)c2ccc(C)c(F)c2)c2c1C(=O)NCC1(CCOCC1)C2 [Example 32, 3-(3-ethyl-4-oxo-spiro[6,8-dihydro-5H-pyrazolo[4,3-c]azepine-7,4′-tetrahydropyran]-1-yl)propyl 3-fluoro-4-methyl-benzoate] | < 100 nM
9 | CCc1nn(CCCOC(=O)c2ccc(C)cc2F)c2c1C(=O)NCC1(CCOCC1)C2 [Example 33, 3-(3-ethyl-4-oxo-spiro[6,8-dihydro-5H-pyrazolo[4,3-c]azepine-7,4′-tetrahydropyran]-1-yl)propyl 2-fluoro-4-methyl-benzoate] | < 100 nM
10 | CCc1nn(CCCOC(=O)c2cc(F)ccc2C)c2c1C(=O)NCC1(CCOCC1)C2 [Example 34, 3-(3-ethyl-4-oxo-spiro[6,8-dihydro-5H-pyrazolo[4,3-c]azepine-7,4′-tetrahydropyran]-1-yl)propyl 5-fluoro-2-methyl-benzoate] | < 100 nM
11 | CCc1nn(CCCOC(=O)c2ccc(F)c(C)c2)c2c1C(=O)NCC1(CCOCC1)C2 [Example 35, 3-(3-ethyl-4-oxo-spiro[6,8-dihydro-5H-pyrazolo[4,3-c]azepine-7,4′-tetrahydropyran]-1-yl)propyl 4-fluoro-3-methyl-benzoate] | < 100 nM
12 | CCc1nn(CCCOC(=O)c2cccc(F)c2C)c2c1C(=O)NCC1(CCOCC1)C2 [Example 36, 3-(3-ethyl-4-oxo-spiro[6,8-dihydro-5H-pyrazolo[4,3-c]azepine-7,4′-tetrahydropyran]-1-yl)propyl 3-fluoro-2-methyl-benzoate] | < 100 nM
13 | CCc1nn(CCCOC(=O)c2cc(C)ccc2F)c2c1C(=O)NCC1(CCOCC1)C2 [Example 37, 3-(3-ethyl-4-oxo-spiro[6,8-dihydro-5H-pyrazolo[4,3-c]azepine-7,4′-tetrahydropyran]-1-yl)propyl 2-fluoro-5-methyl-benzoate] | < 100 nM
14 | CCc1nn(CCCOC(=O)c2ccc(F)cc2C)c2c1C(=O)NCC1(CCOCC1)C2 [Example 38, 3-(3-ethyl-4-oxo-spiro[6,8-dihydro-5H-pyrazolo[4,3-c]azepine-7,4′-tetrahydropyran]-1-yl)propyl 4-fluoro-2-methyl-benzoate] | < 100 nM
15 | CCc1nn(CCCOC(=O)c2c(C)cccc2F)c2c1C(=O)NCC1(CCOCC1)C2 [Example 39, 3-(3-ethyl-4-oxo-spiro[6,8-dihydro-5H-pyrazolo[4,3-c]azepine-7,4′-tetrahydropyran]-1-yl)propyl 2-fluoro-6-methyl-benzoate] | < 100 nM
16 | CCc1nn(CCCOC(=O)c2ccccc2Cl)c2c1C(=O)NCC1(CCOCC1)C2 [Example 40, 3-(3-ethyl-4-oxo-spiro[6,8-dihydro-5H-pyrazolo[4,3-c]azepine-7,4′-tetrahydropyran]-1-yl)propyl 2-chlorobenzoate] | < 100 nM

Row | Compound | IC50
17 | CCc1nn(CCCOC(=O)c2cccc(Cl)c2)c2c1C(=O)NCC1(CCOCC1)C2 [Example 41, 3-(3-ethyl-4-oxo-spiro[6,8-dihydro-5H-pyrazolo[4,3-c]azepine-7,4′-tetrahydropyran]-1-yl)propyl 3-chlorobenzoate] | < 100 nM
18 | CCc1nn(CCCOC(=O)c2ccc(Cl)cc2)c2c1C(=O)NCC1(CCOCC1)C2 [Example 42, 3-(3-ethyl-4-oxo-spiro[6,8-dihydro-5H-pyrazolo[4,3-c]azepine-7,4′-tetrahydropyran]-1-yl)propyl 4-chlorobenzoate] | < 100 nM
19 | CCc1nn(CCCOC(=O)c2cc(F)cc(F)c2)c2c1C(=O)NCC1(CCOCC1)C2 [Example 43, 3-(3-ethyl-4-oxo-spiro[6,8-dihydro-5H-pyrazolo[4,3-c]azepine-7,4′-tetrahydropyran]-1-yl)propyl 3,5-difluorobenzoate] | < 100 nM
20 | CCc1nn(CCCOC(=O)c2ccc(F)c(F)c2)c2c1C(=O)NCC1(CCOCC1)C2 [Example 44, 3-(3-ethyl-4-oxo-spiro[6,8-dihydro-5H-pyrazolo[4,3-c]azepine-7,4′-tetrahydropyran]-1-yl)propyl 3,4-difluorobenzoate] | < 100 nM
21 | CCc1nn(CCCOC(=O)c2cccc(F)c2F)c2c1C(=O)NCC1(CCOCC1)C2 [Example 45, 3-(3-ethyl-4-oxo-spiro[6,8-dihydro-5H-pyrazolo[4,3-c]azepine-7,4′-tetrahydropyran]-1-yl)propyl 2,3-difluorobenzoate] | < 100 nM
22 | CCc1nn(CCCOC(=O)c2c(F)cccc2F)c2c1C(=O)NCC1(CCOCC1)C2 [Example 46, 3-(3-ethyl-4-oxo-spiro[6,8-dihydro-5H-pyrazolo[4,3-c]azepine-7,4′-tetrahydropyran]-1-yl)propyl 2,6-difluorobenzoate] | < 100 nM
23 | CCc1nn(CCCOC(=O)c2cc(F)ccc2F)c2c1C(=O)NCC1(CCOCC1)C2 [Example 47, 3-(3-ethyl-4-oxo-spiro[6,8-dihydro-5H-pyrazolo[4,3-c]azepine-7,4′-tetrahydropyran]-1-yl)propyl 2,5-difluorobenzoate] | < 100 nM
24 | CCc1nn(CCCOC(=O)C2CCC(OC)CC2)c2c1C(=O)NCC1(CCOCC1)C2 (stereo not shown) [Example 48, 3-(3-ethyl-4-oxo-spiro[6,8-dihydro-5H-pyrazolo[4,3-c]azepine-7,4′-tetrahydropyran]-1-yl)propyl 4-methoxycyclohexane-carboxylate] | 100 to 500 nM
25 | CCc1nn(CCCOC(=O)C2CCC(F)(F)CC2)c2c1C(=O)NCC1(CCOCC1)C2 [Example 49, 3-(3-ethyl-4-oxo-spiro[6,8-dihydro-5H-pyrazolo[4,3-c]azepine-7,4′-tetrahydropyran]-1-yl)propyl 4,4-difluorocyclohexane-carboxylate] | 100 to 500 nM
26 | CCc1nn(CCCOC(=O)c2ccc(C(C)=O)cc2)c2c1C(=O)NCC1(CCOCC1)C2 [Example 50, 3-(3-ethyl-4-oxo-spiro[6,8-dihydro-5H-pyrazolo[4,3-c]azepine-7,4′-tetrahydropyran]-1-yl)propyl 4-acetylbenzoate] | < 100 nM
27 | CCc1nn(CCCOC(=O)c2cccc(C(C)=O)c2)c2c1C(=O)NCC1(CCOCC1)C2 [Example 51, 3-(3-ethyl-4-oxo-spiro[6,8-dihydro-5H-pyrazolo[4,3-c]azepine-7,4′-tetrahydropyran]-1-yl)propyl 3-acetylbenzoate] | < 100 nM
28 | CCc1nn(CCCOC(=O)c2ccc(C#N)c(F)c2)c2c1C(=O)NCC1(CCOCC1)C2 [Example 52, 3-(3-ethyl-4-oxo-spiro[6,8-dihydro-5H-pyrazolo[4,3-c]azepine-7,4′-tetrahydropyran]-1-yl)propyl 4-cyano-3-fluoro-benzoate] | < 100 nM
29 | CCc1nn(CCCOC(=O)c2cc(F)cc(C#N)c2)c2c1C(=O)NCC1(CCOCC1)C2 [Example 53, 3-(3-ethyl-4-oxo-spiro[6,8-dihydro-5H-pyrazolo[4,3-c]azepine-7,4′-tetrahydropyran]-1-yl)propyl 3-cyano-5-fluoro-benzoate] | < 100 nM
30 | CCc1nn(CCCOC(=O)c2ccc(C#N)cc2F)c2c1C(=O)NCC1(CCOCC1)C2 [Example 54, 3-(3-ethyl-4-oxo-spiro[6,8-dihydro-5H-pyrazolo[4,3-c]azepine-7,4′-tetrahydropyran]-1-yl)propyl 4-cyano-2-fluoro-benzoate] | < 100 nM
31 | CCc1nn(CCCOC(=O)c2ccc(F)c(C#N)c2)c2c1C(=O)NCC1(CCOCC1)C2 [Example 55, 3-(3-ethyl-4-oxo-spiro[6,8-dihydro-5H-pyrazolo[4,3-c]azepine-7,4′-tetrahydropyran]-1-yl)propyl 3-cyano-4-fluoro-benzoate] | < 100 nM
